Results: ChEMBL document CHEMBL5625202, “Synthesis, characterization and anti-breast cancer activities of stachydrine derivatives” (Eur J Med Chem, 2023)
Activity calls are given as the source filed them. The calls are words filed in the database; no cut-off is given here.

Legend:
[1] = system: 4T1; test: Anticancer activity against mouse 4T1 cells assessed as inhibition of cell growth incubated for 24 hrs by CCK-8 assay; type: functional, cell-based; details: 4T1, 24 h
[2] = system: 4T1; test: Induction of apoptosis in mouse 4T1 cells assessed as apoptotic rate at 2500 micromol/L incubated for 24 hrs by Annexin-V/PI staining based flow cytometry relative to control; type: functional; details: dose 2500 µmol/L, at 2500 µM
[3] = system: 4T1; test: Induction of apoptosis in mouse 4T1 cells assessed as apoptotic rate at 5000 micromol/L incubated for 24 hrs by Annexin-V/PI staining based flow cytometry relative to control; type: functional; details: dose 5000 µmol/L, at 5000 µM
[4] = system: 4T1; test: Induction of apoptosis in mouse 4T1 cells assessed as apoptotic rate at 10000 micromol/L incubated for 24 hrs by Annexin-V/PI staining based flow cytometry relative to control; type: functional; details: dose 10000 µmol/L, at 10000 µM
[5] = system: 4T1; test: Induction of mitochondrial membrane potential loss in mouse 4T1 cells assessed as green fluorescence at 5000 uM incubated for 24 hrs by JC-1 staining based flow cytometric analysis (reference value: 11.7%); type: cell-based
[6] = system: 4T1; test: Induction of mitochondrial membrane potential loss in mouse 4T1 cells assessed as red fluorescence at 5000 uM incubated for 24 hrs by JC-1 staining based flow cytometric analysis (Rvb= 87.9%); type: cell-based
[7] = system: 4T1; test: Induction of apoptosis in mouse 4T1 cells assessed as increase in cleaved caspase-3 expression at 5 mM incubated for 24 hrs by Western blot analysis; type: functional, cell-based
[8] = system: 4T1; test: Induction of apoptosis in mouse 4T1 cells assessed as increase in Bax expression at 5 mM incubated for 24 hrs by Western blot analysis; type: functional, cell-based
[9] = system: 4T1; test: Induction of apoptosis in mouse 4T1 cells assessed as decrease in Bcl-2 expression at 5 mM incubated for 24 hrs by Western blot analysis; type: functional, cell-based
[10] = system: 4T1; test: Inhibition of cell migration in mouse 4T1 cells assessed as reduction in wound healing incubated for 24 hrs by microscopic analysis; type: functional, cell-based
[11] = Toxicity in BALB/c mouse implanted with mouse 4T1 cells assessed as change in lung histopathology at 0.2 mmol/Kg, po administered once every day for 14 days; type: organism-based; details: in vivo, 336 h, time 14 day
[12] = Toxicity in BALB/c mouse implanted with mouse 4T1 cells assessed as increase in white blood cells at 0.2 mmol/Kg, po administered once every day for 14 days by routine blood analysis; type: organism-based; details: in vivo, 336 h, time 14 day
[13] = system: 4T1; test: Antitumor activity against mouse 4T1 cells implanted in BALB/c mouse assessed as tumor growth inhibition at 0.2 mmol/Kg, po administered once every day for 14 days relative to control; type: functional; details: 4T1, 336 h, time 14 day, read-out: TGI
[14] = system: 4T1; test: Antitumor activity against mouse 4T1 cells implanted in BALB/c mouse assessed as tumor cell shrinkage at 0.2 mmol/Kg, po administered once every day for 14 days by histological staining based analysis; type: functional, organism-based; details: time 14.0 day
[15] = Toxicity in BALB/c mouse implanted with mouse 4T1 cells assessed as body weight loss at 0.2 mmol/Kg, po administered once daily for 14 days; type: organism-based; details: in vivo, 336 h, time 14 day
[16] = Toxicity in BALB/c mouse implanted with mouse 4T1 cells assessed as increase in lymphocytes at 0.2 mmol/Kg, po administered once every day for 14 days by routine blood analysis; type: organism-based; details: in vivo, 336 h, time 14 day
[17] = Toxicity in BALB/c mouse implanted with mouse 4T1 cells assessed as increase in neutrophil granulocytes at 0.2 mmol/Kg, po administered once every day for 14 days by routine blood analysis; type: organism-based; details: in vivo, 336 h, time 14 day
[18] = Toxicity in BALB/c mouse implanted with mouse 4T1 cells assessed as increase in monocytes at 0.2 mmol/Kg, po administered once every day for 14 days by routine blood analysis; type: organism-based; details: in vivo, 336 h, time 14 day
[19] = Toxicity in BALB/c mouse implanted with mouse 4T1 cells assessed as increase in AST level at 0.2 mmol/Kg, po administered once every day for 14 days by routine blood analysis; type: organism-based; details: in vivo, 336 h, time 14 day
[20] = Toxicity in BALB/c mouse implanted with mouse 4T1 cells assessed as increase in ALT level at 0.2 mmol/Kg, po administered once every day for 14 days by routine blood analysis; type: organism-based; details: in vivo, 336 h, time 14 day
[21] = Toxicity in BALB/c mouse implanted with mouse 4T1 cells assessed as effect on BUN level at 0.2 mmol/Kg, po administered once every day for 14 days by routine blood analysis; type: organism-based; details: in vivo, 336 h, time 14 day
[22] = Toxicity in BALB/c mouse implanted with mouse 4T1 cells assessed as effect on CREA level at 0.2 mmol/Kg, po administered once every day for 14 days by routine blood analysis; type: organism-based; details: in vivo, 336 h, time 14 day
[23] = Toxicity in BALB/c mouse implanted with mouse 4T1 cells assessed as reduction in spleen index at 0.2 mmol/Kg, po administered once every day for 14 days relative to control; type: organism-based; details: in vivo, 336 h, time 14 day
[24] = Toxicity in BALB/c mouse implanted with mouse 4T1 cells assessed as change in heart histopathology at 0.2 mmol/Kg, po administered once every day for 14 days; type: organism-based; details: in vivo, 336 h, time 14 day
[25] = Toxicity in BALB/c mouse implanted with mouse 4T1 cells assessed as change in liver histopathology at 0.2 mmol/Kg, po administered once every day for 14 days; type: organism-based; details: in vivo, 336 h, time 14 day
[26] = Toxicity in BALB/c mouse implanted with mouse 4T1 cells assessed as change in kidney histopathology at 0.2 mmol/Kg, po administered once every day for 14 days; type: organism-based; details: in vivo, 336 h, time 14 day
[27] = system: 4T1; test: Induction of apoptosis in mouse 4T1 cells assessed as increase in pro-caspase-3 expression at 5 mM incubated for 24 hrs by Western blot analysis; type: functional, cell-based
[28] = Tmax in Sprague-Dawley rat plasma at 10 mg/kg, iv measured upto 6 hrs by LC-MS/MS analysis; type: ADME, organism-based
[29] = Half life in Sprague-Dawley rat plasma at 10 mg/kg, iv measured upto 6 hrs by LC-MS/MS analysis; type: ADME, organism-based
[30] = Cmax in Sprague-Dawley rat plasma at 10 mg/kg, iv measured upto 6 hrs by LC-MS/MS analysis; type: ADME, organism-based
[31] = AUC (0 to t) in Sprague-Dawley rat plasma at 10 mg/kg, iv measured upto 6 hrs by LC-MS/MS analysis; type: ADME, organism-based
[32] = Oral bioavailability in Sprague-Dawley rat at 10 mg/kg measured upto 6 hrs by LC-MS/MS analysis; type: ADME, organism-based; details: in vivo
[33] = system: 4T1; test: Antitumor activity against mouse 4T1 cells implanted in BALB/c mouse assessed as change in tumor weight at 0.2 mmol/Kg, po administered once every day for 14 days; type: functional, organism-based; details: time 14.0 day
[34] = Toxicity in BALB/c mouse implanted with mouse 4T1 cells assessed as blurred spleen morphology at 0.2 mmol/Kg, po administered once every day for 14 days; type: organism-based; details: in vivo, 336 h, time 14 day
[35] = Toxicity in BALB/c mouse implanted with mouse 4T1 cells assessed as splenic edema at 0.2 mmol/Kg, po administered once every day for 14 days; type: organism-based; details: in vivo, 336 h, time 14 day
[36] = Toxicity in BALB/c mouse implanted with mouse 4T1 cells assessed as increase in splenic red pulp at 0.2 mmol/Kg, po administered once every day for 14 days; type: organism-based; details: in vivo, 336 h, time 14 day
[37] = Stability of the compound in Sprague-Dawley rat plasma at 10 mg/kg, po measured after 6 hrs by LC-MS/MS analysis; type: ADME, organism-based; details: in vivo
[38] = system: 4T1; test: Antitumor activity against mouse 4T1 cells implanted in BALB/c mouse assessed as tumor cell necrosis at 0.2 mmol/Kg, po administered once every day for 14 days by histological staining based analysis; type: functional, organism-based; details: time 14.0 day

Molecule C[N+]1(C)CCCC1C(=O)[O-] (stereo not drawn) has an IC50 [1] of 39 mM, an Activity [2] of 20.38% and an Activity [3] of 28.09%. The Activity [4] was 32.47%, the Activity [5] was 29.6% and the Activity [6] was 70.4%. The Activity [7] was “inactive”, the Activity [8] was “Active” and the Activity [9] was “Active”. The inhibition [10] was “Dose-Dependent Effect”, the Activity [11] was “Non-Toxic” and the Activity [12] was “Toxic”. The inhibition in vivo at 200 µmol/kg [13] was 3.89%, the Activity [14] was “Active” and the Activity [15] was “Toxic”. For the same molecule, the Activity [16] was “Toxic”, the Activity [17] was “Toxic” and the Activity [18] was “Toxic”. The Activity [19] was “Toxic”, the Activity [20] was “Toxic” and the Activity [21] was “Non-Toxic”. For the same molecule, the Activity [22] was “Non-Toxic”, the Activity [23] was “Toxic” and the Activity [24] was “Non-Toxic”. The Activity [25] was “Non-Toxic”, the Activity [26] was “Non-Toxic” and the Activity [27] was “inactive”. It also gave a Tmax [28] of 1.02 min, a half-life [29] of 69.6 min and a Cmax [30] of 94.6 µg/mL. The AUC(0-t) at 6 h [31] was 18500 ng·h/mL, the bioavailability [32] was 100% and the Activity [33] was “Active”. The Activity [34] was “Toxic”, the Activity [35] was “Toxic” and the Activity [36] was “Toxic”. For the same molecule, the Stability [37] was “Unstable” and the Activity [38] was “Active”.
